Data taken from patent US10000521B2 (priority 2013, dated 2018).

Experiments:
HCV replicon = assay: IC50 assay with HCV luciferase replicon cell-line; assay type: cell-based; settings: Hepatitis C virus, Huh-7; Huh7 cell line containing HCV replicon with luciferase reporter, 48 h
Description: Plating Cells: The cells used in these assays were a liver-derived Huh7 cell line containing an HCV replicon bearing a luciferase reporter gene. The Huh7 cell-line can be obtained from various sources including the Japanese Collection of Research Bioresources (JCRB), Osaka, Japan. The Huh7 cell line containing an HCV replicon bearing a luciferase reporter gene can be prepared essentially as described by Vrolijk J M, et al. (J Virol Methods. (2003) 110(2):201-9). Cells were passaged when they reached about 70% confluency.
These 0.5 mM dilutions were then used to further serially dilute the compounds in DMEM+2% FBS+0.5% DMSO to keep the concentration of DMSO in each condition identical.
The Glo Lysis Buffer and the Bright Glow reagent was allowed to warm to room temperature for about 30 min in the dark. […] The media was removed from cells, and the cells were gently washed with about 100 μL of phosphate buffered saline (PBS). […] It should be noted that luciferin has a half-life of approximately 30 min at room temperature after it is added to the plate. […] The data was saved and used to calculate the percent inhibition of luciferase activity at each drug concentration. […] Curve equation: (m1−m2)/(1+(x/m3)^m4); m1=100; m2=0.01; m3=0.01; m4=0.01; the equation is: […]

Huh7 cells = assay: TC50 MTS cell viability assay with Huh7 cells (48 h); assay type: cell-based; settings: Homo sapiens, Huh-7
Description: Plating Cells: Huh7 cells (a hepatocellular carcinoma cell-line; these cells can be obtained from the Japanese Collection of Research Bioresources (JCRB), Osaka, Japan) were used to determine the TC50 for representative compounds of the present invention. Briefly, Huh7 cells were passaged when they reached about 70% confluency. The cells were counted using a hemocytometer following dilution of the cells to about 0.5×10^5 cells per mL in DMEM with 10% fetal bovine serum (FBS). The cells were plated in a clear 96-well plate (about 5,000 cells in 100 μL per well). The cells were allowed to attach for about 24 hours at 37° C.
Treating of the cells: The DMEM media without phenol red containing 2% FBS was pre-warmed to 37° C. […] Following dilution, the final DMSO concentration was about 0.5% (v/v). […] The plates were then returned to the incubator and incubated with the cells for 48 h at 37° C.
(§1) The 96-well plate with cells incubated with test compound was removed from the 37° C. incubator. The appropriate amounts of the MTS and PMS reagents were removed from the kit and mixed well. The reagents were maintained in the dark due to their light sensitivity. […] The solutions were mixed completely in the wells prior to each reading.

Huh7 = assay: TC50 assay in different human cell lines (96 h), Huh7; assay type: cell-based; settings: Huh-7, about 96 h, MTS assay
Protocol: as §1
(§2) Plating Cells: Huh7, HEPG2, HEK293, MCF-7, or BxPC3 cells (which can be obtained from American Type Culture Collection, ATCC) were passaged when they were about 70% confluent. […] The cells following passaging were allowed to attach for about 24 hours at 37° C.
(§3) The plates were then returned to the incubator, and cells incubated for about 96 h at 37° C.
(§4) MTS Assay: Assay was carried out as described above.

BxPC3 = assay: TC50 assay in different human cell lines (96 h), BxPC3; assay type: cell-based; settings: BXPC-3, about 96 h, MTS assay
Protocol: as §1, §2, §3, §4

[1] = In vivo pharmacokinetic assessment (LC-MS/MS, plasma and liver); settings: mice, oral, plasma and liver samples
Protocol: All pharmacokinetic studies were performed with CD-1 ICR mice (female, 4-6 week old; 20-30 gram body weight), and three mice were used at each dose level and at each time point for each compound tested. […] Tetrahydrouridine (THU) was immediately added to plasma samples at a final concentration of 25 μg/mL to prevent deamination of dFdC after collection, and the samples were subsequently flash-frozen and stored at −80° C. until analysis. Approximately 200-300 mg of each mouse liver was dissected and homogenized in 150 μL of phosphate buffered saline (PBS) containing 25 μg/mL THU, resulting in 2 mg liver/μL saline homogenate. These liver homogenates were also flash-frozen and stored at −80° C. until analysis. Equivalent amounts of blood plasma and liver tissue were also collected from untreated mice and used to prepare calibration standards and quality controls. An LC-MS/MS assay was utilized to simultaneously quantify the concentrations of compound 1, dFdC and dFdU in each of the plasma and liver samples.

HEPG2 = assay: TC50 assay in different human cell lines (96 h), HEPG2; assay type: cell-based; settings: about 96 h, MTS assay
Protocol: as §1, §2, §3, §4

RPK9 cells = assay: cells; settings: Homo sapiens, 48 h, read-out: TC50 (μM), 48 h treatment
Protocol: (§5) Plating Cells: PK9 or RPK9 cells were seeded in 96-well plates at a density of 2,500 cells/well or 2,500 cells/well, respectively, and the plates were incubated at 37° C. for 24 h to allow for cell attachment.
(§6) Treating with Control & Compound 1: The cells were treated with each compound at final concentrations ranging from 500 μM to 0 μM in triplicate in media containing 2% FBS and 0.5% DMSO.
(§7) The RPK9 cells are described in Saiki, T., et al. (2012) Biochim. Biophys. Res. Commun. 421, 98-104).

PK9 cells [2] = assay: TC50 assay with inhibition of ENT1, PK9 cells; assay type: cell-based; settings: Homo sapiens, PK9, 48 h, PK9 cells (48 h)
Protocol: Plating Cells: Huh7 cells or PK9 cells were seeded in 96-well plates at a density of 5,000 cells/well or 2,500 cells/well, respectively, and the plates were incubated at 37° C. for 24 h to allow for cell attachment.
Treatment with equilibrative nucleoside transporter 1 (ENT1) Inhibitor: The media was then removed from the plates and replaced with media containing 2% FBS, 0.5% DMSO, and either 10 μM dipyramidole or 10 μM S-(4-nitrobenzyl)-6-thioinosine (NBTI).
Treating with Control & Compound 1: After incubation with the ENT1 inhibitor, the cells were treated with each compound at final concentrations ranging from 500 μM to 0 μM in triplicate in media containing 2% FBS, 0.5% DMSO, and either 10 μM dipyridamole or 10 μM NBTI.

MCF-7 = assay: TC50 assay in different human cell lines (96 h), MCF-7; assay type: cell-based; settings: MCF7, about 96 h, MTS assay
Protocol: as §1, §2, §3, §4

PK9 cells [3] = assay: TC50 assay, effect of deficient deoxycytidine kinase activity, PK9 cells; assay type: cell-based; settings: Homo sapiens, 48 h, read-out: TC50 (μM), 48 h treatment
Protocol: as §5, §6, §7

[4] = Stability test at different pH conditions (HPLC); assay type: physicochemical
Protocol: HPLC analysis: 100 μl of the incubated solution was loaded onto a Vydac C18 analytical column 4.6/250, and the mobile phase run at 1 mL/min water with the following procedures: a. Inject 100 μl the incubated solution; b. Water for 5 minutes at 1 ml/min; c. 0-100% acetonitrile over 30 minutes; d. Back to 100% water.
Analysis: Standard HPLC analysis software was used to quantitate the area under each peak. Degradation peaks were quantitated as a percentage of the peak of the same amount of control sample (no heat treatment).

[5] = TC50 assay in different human cell lines (96 h), HEK293; assay type: cell-based; settings: HEK293 cells, about 96 h, MTS assay
Protocol: as §1, §2, §3, §4

O=C(Nc1ccn(C2O[C@H](CO)[C@@H](O)C2(F)F)c(=O)n1)c1cc2c(cc1[N+](=O)[O-])OCO2 (stereo in doubt) [Compound 9]
IC50 (HCV replicon): 0.047 ± 0.004 µM | CC50 (Huh7 cells): > 500 µM

O=C(Nc1ccn([C@@H]2O[C@H](CO)C(O)C2(F)F)c(=O)n1)c1c(Br)ccc2c1OCO2 (some centres unmarked) [Compound 6]
IC50 (HCV replicon): 0.34 ± 0.045 µM | CC50 (Huh7 cells): 2210 ± 821 µM

Cc1cc2c(cc1C(=O)Nc1ccn([C@@H]3O[C@H](CO)C(O)C3(F)F)c(=O)n1)OCCO2 (some centres unmarked) [Compound 8]
IC50 (HCV replicon): 1.69 ± 1.06 µM | CC50 (Huh7 cells): 626 ± 191 µM

O=C(Nc1ccn([C@@H]2O[C@H](CO)C(O)C2(F)F)c(=O)n1)c1ccc2c(c1)OC(F)(F)O2 (some centres unmarked) [Compound 7]
IC50 (HCV replicon): 0.046 ± 0.027 µM | CC50 (Huh7 cells): 188 ± 50 µM

O=C(Nc1ccn([C@@H]2O[C@H](CO)C(O)C2(F)F)c(=O)n1)c1ccc2c(c1)OCCCO2 (some centres unmarked) [Compound 3]
IC50 (HCV replicon): 0.092 ± 0.008 µM | CC50 (Huh7 cells): 881 ± 287 µM

O=C(Nc1ccn([C@@H]2O[C@H](CO)C(O)C2(F)F)c(=O)n1)c1ccc2c(c1)CCO2 (some centres unmarked) [Compound 5]
IC50 (HCV replicon): 0.145 ± 0.017 µM | CC50 (Huh7 cells): 954 ± 247 µM

Nc1ccn([C@@H]2O[C@H](CO)[C@@H](O)C2(F)F)c(=O)n1 [Gem, 4-amino-1-((2R,4R,5R)-3,3-difluoro-4-hydroxy-5-(hydroxymethyl)tetrahydrofuran-2-yl)pyrimidin-2(1H)-one, reference compound]
CC50 (Huh7): 3.41 µM | CC50 (BxPC3): 0.0029 µM | first-pass metabolism to inactive metabolite dFdU [1]: extensive first-pass metabolism | CC50 (HEPG2): 0.311 µM | IC50 (HCV replicon): 0.058 ± 0.006 µM | CC50 (RPK9 cells): > 500 µM | CC50 (PK9 cells [2]; 10 μM NBTI): 1.92 ± 0.78 µM | CC50 (PK9 cells [2]; 10 μM dipyridamole): 193 ± 20 µM | CC50 (PK9 cells [2]; ENT1 inhibitor: None): 0.095 ± 0.035 µM | CC50 (MCF-7): 0.067 µM | CC50 (PK9 cells [3]): 0.095 ± 0.035 µM

CC1(C)Cc2ccc(C(=O)Nc3ccn([C@@H]4O[C@H](CO)C(O)C4(F)F)c(=O)n3)cc2O1 (some centres unmarked) [Compound 4]
IC50 (HCV replicon): 0.177 ± 0.045 µM | CC50 (Huh7 cells): 1160 ± 204 µM

O=C(Nc1ccn(C2O[C@H](CO)[C@@H](O)C2(F)F)c(=O)n1)c1ccc2c(c1)OCCO2 (stereo partly drawn) [Compound 2, N-(1-((4R,5R)-3,3-difluoro-4-hydroxy-5-(hydroxymethyl)tetrahydrofuran-2-yl)-2-oxo-1,2-dihydropyrimidin-4-yl)-2,3-dihydrobenzo[b][1,4]dioxine-6-carboxamide]
CC50 (Huh7): 3.34 µM | CC50 (BxPC3): 1.15 µM | CC50 (HEPG2): 1.13 µM | Compound remaining (%) ([4]; Pretreatment): 100% | Compound remaining (%) ([4]; pH 1, 40° C., 4 h): 71% | Compound remaining (%) ([4]; pH 2, 40° C., 4 h): 100% | Compound remaining (%) ([4]; pH 4, 40° C., 4 h): 100% | Compound remaining (%) ([4]; pH 6, 40° C., 4 h): 100% | Compound remaining (%) ([4]; pH 8, 40° C., 4 h): 100% | IC50 (HCV replicon): 0.127 ± 0.009 µM | CC50 at 96 h [5]: 5.61 µM | CC50 (MCF-7): 1.44 µM | CC50 (Huh7 cells): 855 ± 166 µM
